The values below come from patent US11485725B2, “Derivatives of piperlongumine and uses thereof” (Auransa Inc., priority 2017, dated 2022).

Data set [1] in a line: In vivo pharmacokinetic analysis, plasma. The arrangement: species or system Balb/C female mice. To be noted: mice, result in words. Here is the method:
In Vivo Pharmacokinetic Analysis
Age 8 to 9 weeks Balb/C female mice were used for this study. The mice were maintained in a special pathogen-free environment and in disposable cages. Animal room was set to maintain temperature and relative humidity at 23° C.±3° C. and 55%±15%, respectively. Housing room was on a 12:12 light/dark cycle. Water was supplied ad libitum to each cage via water bottles. All mice were fed rodent diet with 18% protein. All animals were weighed before commencement of the study.
Compound 1 was stored at 4° C. protected from light. Dosing solutions were used within 2 hours of preparation. Compound 1 was formulated within 2 hours prior to dosing by adding the pre-calculated volume of PEG 400 (40% of total solution volume). Formulated compound 1 was vortexed and sonicated until a clear solution was formed. […]
The concentration of Compound 1 was determined by a UPLC-TIS-MS-MS method (ultra performance liquid chromatography-turbo ion spray-tandem mass spectrometry). […]
Mass spectrometric analysis was performed using an AB Sciex API5000 with Turbo Ion Spray interface operating in a positive ionization mode. Quantification was performed using multiple reaction monitoring (MRM) method with the transitions of (m/z) 316.104→(m/z) 219.014 for Compound 1 and (m/z) 455.346→(m/z) 165 for verapamil (internal standard). […]

The next data set concerns DU4475. Briefly: In vitro cell viability assay (CellTiter-Glo, ATP levels), triple negative breast cancer cells. Format: cell-based. To be noted: 7-day incubation, CellTiter-Glo, average values, read-out: DU4475 IC50. A digest of the protocol: (§1)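 Cells plated overnight, then exposed to compounds over a concentration range for 7 days at 37 °C, 5% CO2. Viability read as ATP luminescence (CellTiter-Glo), normalised to positive and negative control wells; IC50 from Hill-equation non-linear regression of concentration–response curves.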

The subject of a further data set is MOLP-8. Nature of the data set: In vitro cell viability assay (CellTiter-Glo, ATP levels), multiple myeloma cells. It counts as cell-based. Conditions: 7-day incubation, CellTiter-Glo, average values, read-out: MOLP-8 IC50. An outline of the steps:
as §1
Background: ATP-based viability assays read luminescence as a measure of living cells.

For data set [2], the system named is HCT116 (colorectal cancer) cells. Nature of the data set: Resazurin-based cell viability assay using colorectal cancer cells. A digest of the protocol: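 HCT116 cells in DMEM/10% FBS grown 24 h, then exposed to serially diluted compounds for 72 h at 37 °C. Viability read as resazurin (1 mM) fluorescence (ex 535/em 590 nm) after 4–6 h; background-subtracted, normalised to DMSO control, IC50 fitted from percent survival.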

The nature of data set [3]: In vitro microsome stability analyses. It counts as in vitro ADME. Conditions: result in words.
[4] abbreviates: Homo sapiens, HCT-116, 72 hr incubation.

Read-outs that look alike come from different tables or passages of the source.

By IC50 is commonly meant the point on the concentration scale where inhibition reaches its midpoint.

On to `COc1cc(/C=C/C(=O)N2CCC=CC2=O)cc2c1OCCO2` [Compound 1, (E)-1-(3-(8-methoxy-2,3-dihydrobenzo[b][1,4]dioxin-6-yl)acryloyl)-5,6-dihydropyridin-2(1H)-one], for which the “in vivo plasma half-life (t1/2) as compared to piperlongumine” value in data set [1] is given as “increased in vivo plasma half-life (t1/2) as compared to piperlongumine”. Besides, the half-inhibitory concentration (IC50) in the data set on DU4475 (Homo sapiens, DU-4475, 168 h) is 0.83 µM; with MOLP-8 (Homo sapiens, MOLP-8, 168 h) it was 0.74 µM; in data set [2] (setting [4]) it was 1.9 µM. In data set [3], the “potency and/or metabolic stability” value was “demostrated potency and/or metabolic stability”.

Regarding `O=C1C=CCCN1C(=O)/C=C/C1CCN(c2ncccn2)CC1` [Compound 67, 1-{(2E)-3-[1-(pyrimidin-2-yl)piperidin-4-yl]prop-2-enoyl}-5,6-dihydropyridin-2(1H)-one], the concentration for half-maximal inhibition (IC50) turned out to be 0.96 µM in the data set on DU4475 (Homo sapiens, DU-4475, 168 h); 0.76 µM with MOLP-8 (Homo sapiens, MOLP-8, 168 h); 3.4 µM in data set [2] (setting [4]).

On to `CC(=O)N1CCC(/C=C/C(=O)N2CCC=CC2=O)CC1` [Compound 9, (E)-1-(3-(1-acetylpiperidin-4-yl)acryloyl)-5,6-dihydropyridin-2(1H)-one], for which the IC50 in the data set with DU4475 (Homo sapiens, DU-4475, 168 h) is 0.92 µM; with MOLP-8 (Homo sapiens, MOLP-8, 168 h) it was 0.97 µM; in data set [2] (setting [4]) it was 5.7 µM.

Turning to `O=C1C=CCCN1C(=O)/C=C/C1CCN(S(=O)(=O)c2ccccc2)CC1` [Compound 57, (E)-1-(3-(1-(phenylsulfonyl)piperidin-4-yl)acryloyl)-5,6-dihydropyridin-2(1H)-one], the IC50 was determined as 0.53 µM with DU4475 (Homo sapiens, DU-4475, 168 h); 0.68 µM in the data set with MOLP-8 (Homo sapiens, MOLP-8, 168 h); 1.36 µM in data set [2] (setting [4]).

`Cc1noc(/C=C/C(=O)N2CCCC=CC2=O)n1` [Compound 17, (E)-1-(3-(3-methyl-1,2,4-oxadiazol-5-yl)acryloyl)-1,5,6,7-tetrahydro-2H-azepin-2-one]: the IC50 with DU4475 (Homo sapiens, DU-4475, 168 h) was determined as 1.16 µM; in the data set with MOLP-8 (Homo sapiens, MOLP-8, 168 h) it was 0.33 µM; in data set [2] (setting [4]), 5.93 µM.

Turning to `Cn1cc(/C=C/S(=O)(=O)N2CCC=CC2=O)cn1` [Compound 75, 1-{[(E)-2-(1-methyl-1H-pyrazol-4-yl)ethenyl]sulfonyl}-5,6-dihydropyridin-2(1H)-one], the IC50 with DU4475 (Homo sapiens, DU-4475, 168 h) was determined as 1.6 µM; in the data set on MOLP-8 (Homo sapiens, MOLP-8, 168 h), 0.86 µM; in data set [2] (setting [4]) it was 4.62 µM.

As to `Cn1ccc(/C=C/C(=O)N2CCC=CC2=O)n1` [Compound 53, 1-[(2E)-3-(1-methyl-1H-pyrazol-3-yl)prop-2-enoyl]-5,6-dihydropyridin-2(1H)-one], the IC50 was 0.73 µM in the data set with DU4475 (Homo sapiens, DU-4475, 168 h); 0.56 µM in the data set on MOLP-8 (Homo sapiens, MOLP-8, 168 h); 2.12 µM in data set [2] (setting [4]).

As to `C/C(=C/C1CCN(C(=O)Nc2ccc(F)cc2)CC1)C(=O)N1CCC=CC1=O` [Compound 78], the concentration for half-maximal inhibition (IC50) with DU4475 (Homo sapiens, DU-4475, 168 h) is 1.53 µM; with MOLP-8 (Homo sapiens, MOLP-8, 168 h) it was 0.95 µM; in data set [2] (setting [4]), 4.85 µM.

Regarding `C/C(=C\c1cnn(C)c1)C(=O)N1CCC=CC1=O` [Compound 69, 1-[(2E)-2-methyl-3-(1-methyl-1H-pyrazol-4-yl)prop-2-enoyl]-5,6-dihydropyridin-2(1H)-one], the IC50 in the data set with DU4475 (Homo sapiens, DU-4475, 168 h) worked out at 4.01 µM; in the data set with MOLP-8 (Homo sapiens, MOLP-8, 168 h), 1.98 µM; in data set [2] (setting [4]), 14 µM.

In the case of `Cn1cc(/C=C/C(=O)N2CCC=CC2=O)cn1` [Compound 56, (E)-1-(3-(1-methyl-1H-pyrazol-4-yl)acryloyl)-5,6-dihydropyridin-2(1H)-one], the IC50 in the data set with DU4475 (Homo sapiens, DU-4475, 168 h) came out at 1.38 µM; with MOLP-8 (Homo sapiens, MOLP-8, 168 h), 0.6 µM; in data set [2] (setting [4]), 3.6 µM.

As for `O=C1C=CC(O)CN1C(=O)/C=C/c1ncccn1` (centres unmarked) [Compound 32, 5-hydroxy-1-[(2E)-3-(pyrimidin-2-yl)prop-2-enoyl]-5,6-dihydropyridin-2(1H)-one], the IC50 is 1.49 µM in the data set with DU4475 (Homo sapiens, DU-4475, 168 h); 0.38 µM in the data set with MOLP-8 (Homo sapiens, MOLP-8, 168 h); 7.2 µM in data set [2] (setting [4]).

For the compound `O=C1C=CCCN1C(=O)/C=C/c1ccc2c(n1)OCCO2` [Compound 23, (E)-1-(3-(2,3-dihydro-[1,4]dioxino[2,3-b]pyridin-6-yl)acryloyl)-5,6-dihydropyridin-2(1H)-one], the IC50 in the data set on DU4475 turned out to be 0.5 µM; in the data set with MOLP-8, 0.7 µM; in data set [2] (72 hr incubation, read-out: HCT 116 IC50), 3.16 µM.

Consider `O=C1C=CCCN1C(=O)/C=C/C1CC1` [Compound 18, (E)-1-(3-cyclopropylacryloyl)-5,6-dihydropyridin-2(1H)-one], for which the IC50 with DU4475 (Homo sapiens, DU-4475, 168 h) worked out at 2.05 µM; in the data set with MOLP-8 (Homo sapiens, MOLP-8, 168 h), 0.68 µM; in data set [2] (setting [4]), 14.2 µM.

With `CC(C)(C)OC(=O)N1CCC(/C=C(\C(=O)N2CCC=CC2=O)c2ccccc2)CC1` [Compound 92, (Z)-tert-butyl 4-(3-oxo-3-(2-oxo-5,6-dihydropyridin-1(2H)-yl)-2-phenylprop-1-enyl)piperidine-1-carboxylate], the IC50 in the data set with DU4475 (Homo sapiens, DU-4475, 168 h) is 4.75 µM; with MOLP-8 (Homo sapiens, MOLP-8, 168 h), 4.32 µM; in data set [2] (setting [4]), 9.72 µM.

Regarding `O=C1C=CCCN1S(=O)(=O)/C=C/c1ncccn1` [Compound 66, 1-{[(E)-2-(pyrimidin-2-yl)ethenyl]sulfonyl}-5,6-dihydropyridin-2(1H)-one], the half-maximal inhibitory concentration (IC50) turned out to be 0.95 µM with DU4475 (Homo sapiens, DU-4475, 168 h); 0.21 µM in the data set with MOLP-8 (Homo sapiens, MOLP-8, 168 h); 3.11 µM in data set [2] (setting [4]).

With `Cn1cc(/C=C/C(=O)N2CC(C)(C)C=CC2=O)cn1` [Compound 85, (E)-5,5-dimethyl-1-(3-(1-methyl-1H-pyrazol-4-yl)acryloyl)-5,6-dihydropyridin-2(1H)-one], the 50% inhibitory concentration (IC50) was found to be 6.79 µM in the data set on DU4475 (Homo sapiens, DU-4475, 168 h); 4.6 µM in the data set on MOLP-8 (Homo sapiens, MOLP-8, 168 h); 31 µM in data set [2] (setting [4]).
